Experimental data reported in ChEMBL document CHEMBL5291721, “A preclinical secondary pharmacology resource illuminates target-adverse drug reaction associations of marketed drugs” (Nat Commun, 2023).
Values joined by “and” are separate entries in the source; they are usually repeats but may differ in a detail not shown here. Identical values can stand only once.

Assays:
Histamine H3 receptor [1] = target: T1, Histamine H3 receptor (Homo sapiens, UniProt Q9Y5N1)
[2] = target: T2, 5-hydroxytryptamine receptor 2B (Homo sapiens, UniProt P41595); format: functional, cell-based
[3] = target: T3, Gamma-aminobutyric acid receptor subunit alpha-1 (Rattus norvegicus, UniProt P62813); format: functional
[4] = target: T4, Alpha-1A adrenergic receptor (Homo sapiens, UniProt P35348)
T4 sequence (P35348 whole entry): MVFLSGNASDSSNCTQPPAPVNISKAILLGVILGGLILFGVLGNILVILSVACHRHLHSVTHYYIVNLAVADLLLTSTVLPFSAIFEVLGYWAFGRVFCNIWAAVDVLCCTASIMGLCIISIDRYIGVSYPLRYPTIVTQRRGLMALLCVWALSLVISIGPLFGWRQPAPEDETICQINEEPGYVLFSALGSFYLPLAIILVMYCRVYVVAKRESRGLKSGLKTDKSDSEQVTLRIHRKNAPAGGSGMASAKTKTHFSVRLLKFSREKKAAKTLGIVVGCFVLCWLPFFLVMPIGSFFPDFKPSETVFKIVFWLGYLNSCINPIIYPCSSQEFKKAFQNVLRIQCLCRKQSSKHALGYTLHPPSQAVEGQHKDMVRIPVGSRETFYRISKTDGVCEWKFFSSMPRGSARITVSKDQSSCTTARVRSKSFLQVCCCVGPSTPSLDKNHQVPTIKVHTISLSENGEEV

[5] = target: T4, Alpha-1A adrenergic receptor; format: functional, cell-based
Glucocorticoid receptor = target: T5, Glucocorticoid receptor (Homo sapiens, UniProt P04150)
T5 sequence (P04150 whole entry): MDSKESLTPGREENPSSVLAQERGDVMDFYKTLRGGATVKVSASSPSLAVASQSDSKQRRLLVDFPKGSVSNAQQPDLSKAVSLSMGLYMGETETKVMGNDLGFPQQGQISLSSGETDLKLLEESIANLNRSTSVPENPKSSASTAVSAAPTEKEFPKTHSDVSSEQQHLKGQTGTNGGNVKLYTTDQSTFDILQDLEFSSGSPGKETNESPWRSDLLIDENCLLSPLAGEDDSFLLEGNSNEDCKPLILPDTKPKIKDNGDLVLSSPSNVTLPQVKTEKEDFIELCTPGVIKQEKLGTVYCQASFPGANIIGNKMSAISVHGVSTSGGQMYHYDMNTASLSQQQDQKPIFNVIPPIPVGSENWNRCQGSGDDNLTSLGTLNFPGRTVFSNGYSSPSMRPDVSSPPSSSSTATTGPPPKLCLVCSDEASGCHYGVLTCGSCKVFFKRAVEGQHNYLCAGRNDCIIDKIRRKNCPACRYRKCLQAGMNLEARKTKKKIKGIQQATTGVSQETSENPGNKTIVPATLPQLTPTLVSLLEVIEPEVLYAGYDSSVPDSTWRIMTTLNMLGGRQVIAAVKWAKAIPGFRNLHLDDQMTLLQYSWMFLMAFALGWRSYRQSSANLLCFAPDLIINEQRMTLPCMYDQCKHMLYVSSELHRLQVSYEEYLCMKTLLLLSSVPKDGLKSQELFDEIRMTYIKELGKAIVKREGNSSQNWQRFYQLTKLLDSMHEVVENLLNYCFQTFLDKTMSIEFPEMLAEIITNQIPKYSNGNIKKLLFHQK

Cannabinoid receptor 1 = Cannabinoid receptor 1 (Homo sapiens, UniProt P21554); format: functional, cell-based
[6] = target: T6, Muscarinic acetylcholine receptor M2 (Homo sapiens, UniProt P08172); format: functional, cell-based
T6 sequence (P08172 whole entry): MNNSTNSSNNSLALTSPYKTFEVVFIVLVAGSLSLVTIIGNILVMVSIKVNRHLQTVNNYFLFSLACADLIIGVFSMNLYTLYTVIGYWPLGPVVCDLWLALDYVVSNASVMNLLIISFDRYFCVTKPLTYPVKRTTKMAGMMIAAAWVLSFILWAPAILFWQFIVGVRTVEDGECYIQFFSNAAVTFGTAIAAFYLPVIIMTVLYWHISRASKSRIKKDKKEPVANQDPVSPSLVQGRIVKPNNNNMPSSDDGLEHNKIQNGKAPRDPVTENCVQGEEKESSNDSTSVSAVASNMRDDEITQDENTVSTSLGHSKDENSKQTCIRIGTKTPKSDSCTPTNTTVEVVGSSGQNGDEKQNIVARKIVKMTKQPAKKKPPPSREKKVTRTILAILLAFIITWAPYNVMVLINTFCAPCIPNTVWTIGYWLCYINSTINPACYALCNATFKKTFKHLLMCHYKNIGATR

[7] = target: T3, Gamma-aminobutyric acid receptor subunit alpha-1
[8] = target: T2, 5-hydroxytryptamine receptor 2B; format: functional, cell-based; remark: listed apart in the source
[9] = target: T7, Muscarinic acetylcholine receptor M1 (Homo sapiens, UniProt P11229); format: functional, cell-based
T7 sequence (P11229 whole entry): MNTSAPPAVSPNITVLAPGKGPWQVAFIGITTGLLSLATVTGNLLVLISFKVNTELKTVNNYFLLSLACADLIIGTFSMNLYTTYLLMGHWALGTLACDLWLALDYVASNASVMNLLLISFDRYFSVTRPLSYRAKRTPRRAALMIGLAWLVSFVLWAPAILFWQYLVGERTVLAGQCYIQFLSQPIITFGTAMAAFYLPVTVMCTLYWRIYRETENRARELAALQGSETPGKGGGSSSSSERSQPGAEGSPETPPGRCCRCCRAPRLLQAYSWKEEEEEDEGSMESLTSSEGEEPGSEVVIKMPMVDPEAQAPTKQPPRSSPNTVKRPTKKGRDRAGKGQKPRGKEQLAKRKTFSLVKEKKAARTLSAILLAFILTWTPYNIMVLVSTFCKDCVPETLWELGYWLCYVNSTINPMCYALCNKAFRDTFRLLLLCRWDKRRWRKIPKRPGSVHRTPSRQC

Acetylcholinesterase = Acetylcholinesterase (Homo sapiens, UniProt P22303); format: functional
[10] = target: T4, Alpha-1A adrenergic receptor; format: functional, cell-based; remark: listed apart in the source
[11] = target: Vascular endothelial growth factor receptor 2 (Homo sapiens, UniProt P35968); format: functional
[12] = target: T6, Muscarinic acetylcholine receptor M2
[13] = target: 3',5'-cyclic-AMP phosphodiesterase 4A (Homo sapiens, UniProt P27815); format: functional
Histamine H3 receptor [14] = target: T1, Histamine H3 receptor; remark: listed apart in the source
Note: assay procedure not described here.

T1 sequence (Q9Y5N1 whole entry): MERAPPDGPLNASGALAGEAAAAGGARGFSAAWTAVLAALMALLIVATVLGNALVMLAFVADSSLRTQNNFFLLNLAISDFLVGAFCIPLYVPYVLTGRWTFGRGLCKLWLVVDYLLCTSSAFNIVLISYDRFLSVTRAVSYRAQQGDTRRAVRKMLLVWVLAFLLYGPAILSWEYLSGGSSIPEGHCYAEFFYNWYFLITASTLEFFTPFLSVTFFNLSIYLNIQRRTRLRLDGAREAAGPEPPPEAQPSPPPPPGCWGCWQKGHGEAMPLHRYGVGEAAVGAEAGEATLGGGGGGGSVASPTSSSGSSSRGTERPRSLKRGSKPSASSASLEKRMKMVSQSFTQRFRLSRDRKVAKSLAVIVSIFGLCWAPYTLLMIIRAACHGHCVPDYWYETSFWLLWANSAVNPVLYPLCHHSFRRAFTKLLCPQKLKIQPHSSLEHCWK
Cannabinoid receptor 1, sequence (P21554 whole entry): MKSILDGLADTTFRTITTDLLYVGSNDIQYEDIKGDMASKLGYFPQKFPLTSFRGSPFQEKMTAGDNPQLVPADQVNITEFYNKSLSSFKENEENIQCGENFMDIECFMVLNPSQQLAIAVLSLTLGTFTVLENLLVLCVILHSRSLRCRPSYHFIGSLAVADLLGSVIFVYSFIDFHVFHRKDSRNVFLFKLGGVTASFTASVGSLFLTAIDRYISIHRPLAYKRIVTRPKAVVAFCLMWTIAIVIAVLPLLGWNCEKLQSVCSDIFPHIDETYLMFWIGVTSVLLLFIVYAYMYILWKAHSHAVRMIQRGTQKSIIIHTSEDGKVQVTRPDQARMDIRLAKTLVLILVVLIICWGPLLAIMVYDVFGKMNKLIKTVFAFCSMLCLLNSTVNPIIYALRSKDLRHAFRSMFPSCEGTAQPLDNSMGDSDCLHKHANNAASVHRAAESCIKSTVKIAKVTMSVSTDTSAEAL
3',5'-cyclic-AMP phosphodiesterase 4A, sequence (P27815 whole entry): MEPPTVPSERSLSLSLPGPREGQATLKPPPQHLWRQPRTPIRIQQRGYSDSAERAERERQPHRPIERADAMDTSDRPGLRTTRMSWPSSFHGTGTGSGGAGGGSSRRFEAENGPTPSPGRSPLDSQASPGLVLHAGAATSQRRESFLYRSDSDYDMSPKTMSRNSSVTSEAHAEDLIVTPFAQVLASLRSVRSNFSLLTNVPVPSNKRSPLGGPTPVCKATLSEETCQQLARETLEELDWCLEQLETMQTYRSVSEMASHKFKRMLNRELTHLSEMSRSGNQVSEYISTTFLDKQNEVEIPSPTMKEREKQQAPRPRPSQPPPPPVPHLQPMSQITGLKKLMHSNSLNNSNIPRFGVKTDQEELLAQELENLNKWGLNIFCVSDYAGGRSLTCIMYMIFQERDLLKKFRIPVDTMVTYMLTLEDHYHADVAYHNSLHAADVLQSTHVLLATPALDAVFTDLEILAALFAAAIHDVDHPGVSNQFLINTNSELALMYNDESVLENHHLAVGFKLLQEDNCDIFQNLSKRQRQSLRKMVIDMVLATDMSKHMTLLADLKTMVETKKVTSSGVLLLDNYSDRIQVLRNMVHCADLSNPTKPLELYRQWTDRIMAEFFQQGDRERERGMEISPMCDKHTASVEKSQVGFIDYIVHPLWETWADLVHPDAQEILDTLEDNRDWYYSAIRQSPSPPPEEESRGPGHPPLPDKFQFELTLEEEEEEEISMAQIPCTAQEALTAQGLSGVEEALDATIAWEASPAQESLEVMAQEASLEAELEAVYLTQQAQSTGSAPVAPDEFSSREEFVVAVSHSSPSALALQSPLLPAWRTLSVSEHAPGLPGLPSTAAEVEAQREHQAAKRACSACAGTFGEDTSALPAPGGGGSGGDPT
Acetylcholinesterase, sequence (P22303 whole entry): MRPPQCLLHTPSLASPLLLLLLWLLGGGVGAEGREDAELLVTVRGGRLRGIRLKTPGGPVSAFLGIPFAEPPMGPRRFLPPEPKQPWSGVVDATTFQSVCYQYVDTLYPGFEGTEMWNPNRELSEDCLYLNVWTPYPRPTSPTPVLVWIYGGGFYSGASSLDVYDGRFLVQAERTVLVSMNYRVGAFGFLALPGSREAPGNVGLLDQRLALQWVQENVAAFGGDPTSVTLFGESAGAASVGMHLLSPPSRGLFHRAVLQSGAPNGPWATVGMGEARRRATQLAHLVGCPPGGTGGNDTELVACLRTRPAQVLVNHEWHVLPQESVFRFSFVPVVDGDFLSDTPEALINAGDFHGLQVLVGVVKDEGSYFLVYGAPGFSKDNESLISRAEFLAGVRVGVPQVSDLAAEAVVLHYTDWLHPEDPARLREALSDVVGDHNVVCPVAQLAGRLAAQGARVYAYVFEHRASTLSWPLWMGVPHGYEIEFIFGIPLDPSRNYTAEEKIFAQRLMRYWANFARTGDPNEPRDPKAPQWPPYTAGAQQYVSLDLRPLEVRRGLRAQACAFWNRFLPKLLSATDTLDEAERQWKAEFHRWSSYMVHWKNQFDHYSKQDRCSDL
T2 sequence (P41595 whole entry): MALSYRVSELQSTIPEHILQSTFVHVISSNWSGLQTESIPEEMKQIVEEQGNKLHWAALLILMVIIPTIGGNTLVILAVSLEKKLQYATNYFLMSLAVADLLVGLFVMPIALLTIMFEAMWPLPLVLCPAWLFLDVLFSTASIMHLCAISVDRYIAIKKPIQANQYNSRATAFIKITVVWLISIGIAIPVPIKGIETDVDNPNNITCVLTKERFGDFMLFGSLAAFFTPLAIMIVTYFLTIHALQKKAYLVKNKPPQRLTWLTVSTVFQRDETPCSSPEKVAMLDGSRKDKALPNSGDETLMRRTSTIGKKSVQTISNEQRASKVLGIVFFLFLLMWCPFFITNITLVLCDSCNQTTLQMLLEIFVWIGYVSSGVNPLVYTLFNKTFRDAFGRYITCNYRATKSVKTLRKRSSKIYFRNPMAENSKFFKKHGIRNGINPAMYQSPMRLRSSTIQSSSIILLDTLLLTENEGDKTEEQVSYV
T3 sequence (P62813 whole entry): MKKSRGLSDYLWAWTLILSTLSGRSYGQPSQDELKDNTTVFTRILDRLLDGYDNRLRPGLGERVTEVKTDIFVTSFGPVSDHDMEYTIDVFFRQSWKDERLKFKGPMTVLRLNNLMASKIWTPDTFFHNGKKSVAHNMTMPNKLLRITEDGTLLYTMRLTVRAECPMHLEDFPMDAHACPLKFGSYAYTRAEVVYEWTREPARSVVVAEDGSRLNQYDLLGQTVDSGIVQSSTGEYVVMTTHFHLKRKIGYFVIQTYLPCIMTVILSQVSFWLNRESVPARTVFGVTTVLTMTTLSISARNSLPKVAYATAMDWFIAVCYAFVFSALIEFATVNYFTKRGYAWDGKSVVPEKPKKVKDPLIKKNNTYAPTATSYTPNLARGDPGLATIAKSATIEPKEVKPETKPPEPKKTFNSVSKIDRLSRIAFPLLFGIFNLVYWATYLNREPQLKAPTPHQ
Vascular endothelial growth factor receptor 2, sequence (P35968 whole entry): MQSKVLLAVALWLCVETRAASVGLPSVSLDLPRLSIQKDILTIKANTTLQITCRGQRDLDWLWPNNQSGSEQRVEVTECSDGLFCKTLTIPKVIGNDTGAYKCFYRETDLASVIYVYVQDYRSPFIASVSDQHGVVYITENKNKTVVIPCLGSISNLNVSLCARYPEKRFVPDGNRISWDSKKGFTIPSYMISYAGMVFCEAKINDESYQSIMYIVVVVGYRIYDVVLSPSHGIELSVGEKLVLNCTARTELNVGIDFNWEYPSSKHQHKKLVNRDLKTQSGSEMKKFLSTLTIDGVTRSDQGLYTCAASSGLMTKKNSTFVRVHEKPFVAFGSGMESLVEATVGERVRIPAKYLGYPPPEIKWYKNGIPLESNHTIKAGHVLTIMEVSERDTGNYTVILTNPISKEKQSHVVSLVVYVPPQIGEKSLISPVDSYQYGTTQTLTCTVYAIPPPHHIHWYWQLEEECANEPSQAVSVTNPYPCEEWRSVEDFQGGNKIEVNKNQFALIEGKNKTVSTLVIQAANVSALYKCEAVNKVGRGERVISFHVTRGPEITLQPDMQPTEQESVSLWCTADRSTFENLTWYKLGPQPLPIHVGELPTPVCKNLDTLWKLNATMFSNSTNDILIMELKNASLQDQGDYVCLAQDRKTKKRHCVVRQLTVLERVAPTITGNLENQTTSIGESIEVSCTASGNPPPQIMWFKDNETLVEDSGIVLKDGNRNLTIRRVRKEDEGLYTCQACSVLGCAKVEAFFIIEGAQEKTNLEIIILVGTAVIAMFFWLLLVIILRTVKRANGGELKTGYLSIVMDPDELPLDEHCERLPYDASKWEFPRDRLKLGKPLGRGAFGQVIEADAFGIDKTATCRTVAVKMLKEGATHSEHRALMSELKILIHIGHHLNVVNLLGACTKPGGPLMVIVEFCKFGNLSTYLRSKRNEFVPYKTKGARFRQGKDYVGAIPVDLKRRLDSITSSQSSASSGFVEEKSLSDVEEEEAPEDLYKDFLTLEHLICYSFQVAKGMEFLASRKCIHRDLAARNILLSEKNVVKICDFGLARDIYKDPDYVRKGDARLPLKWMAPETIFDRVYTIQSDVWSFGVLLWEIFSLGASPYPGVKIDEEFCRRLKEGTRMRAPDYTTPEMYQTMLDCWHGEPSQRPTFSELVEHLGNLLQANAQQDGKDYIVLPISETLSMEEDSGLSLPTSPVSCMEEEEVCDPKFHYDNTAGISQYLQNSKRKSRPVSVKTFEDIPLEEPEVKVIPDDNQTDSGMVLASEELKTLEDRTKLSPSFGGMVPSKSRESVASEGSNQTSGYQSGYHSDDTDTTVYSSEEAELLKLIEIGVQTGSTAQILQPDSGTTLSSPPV

Structure (SMILES)	AC50 (Histamine H3 receptor [1]) [µM]	AC50 [2] [µM]	AC50 [3] [µM]	AC50 [4] [µM]	AC50 [5]	AC50 (Glucocorticoid receptor) [µM]	AC50 (Cannabinoid receptor 1) [µM]	AC50 [6] [µM]	AC50 [7] [µM]	AC50 [8] [µM]	AC50 [9] [µM]	AC50 (Acetylcholinesterase) [µM]	AC50 [10] [µM]	AC50 [11] [µM]	AC50 [12] [µM]	AC50 [13] [µM]	AC50 (Histamine H3 receptor [14]) [µM]
CC12CC3CC(C)(C1)CC(N)(C3)C2 [MEMANTINE]	> 10	> 10	> 10	> 10	> 30 µM	> 30	> 30	> 10	> 10								
C=CCSCC1Nc2cc(Cl)c(S(N)(=O)=O)cc2S(=O)(=O)N1 (stereo unspecified) [ALTHIAZIDE]										> 30	> 30	> 30	> 30	> 30	> 30	> 30	> 30
COc1cc(N2CCC(N3CCN(C)CC3)CC2)ccc1Nc1ncc(Cl)c(Nc2ccccc2P(C)(C)=O)n1 [BRIGATINIB]										> 30	> 30	> 30	> 30	0.183	> 30	> 30	2.53
CCCc1nc(C(C)(C)O)c(C(=O)O)n1Cc1ccc(-c2ccccc2-c2nnn[nH]2)cc1 [OLMESARTAN]										> 30	> 30	> 30	> 30	> 30	> 30	> 30	> 30
c1ccc2c(c1)CCc1ccccc1N2C1CN2CCC1CC2 (stereo unspecified) [QUINUPRAMINE]										> 30	0.0076	> 30	2.41	> 30	0.0329	> 30	> 30
Cc1cc(N)c2ccccc2[n+]1CCCCCCCCCC[n+]1c(C)cc(N)c2ccccc21											0.611	0.0264	3.21	> 30	0.0497	3.16	0.0813
CCOC(=O)N1CSC[C@H]1C(=O)O [TELMESTEINE]										> 30	> 30	> 30	> 30	> 30	> 30	> 30	> 30
CC(C(=O)O)c1ccc(-c2ccccc2)c(F)c1 (stereo unspecified) [FLURBIPROFEN]		> 10	> 10	> 10		> 30		> 10	> 10	> 30		> 30	> 30		> 30	> 30	> 30
CC1=CCC(C(C)(C)O)CC1O (stereo unspecified) [SOBREROL]										> 30	> 30	> 30	> 30	> 30	> 30	> 30	> 30
NCC(CC(=O)O)c1ccccc1 (stereo unspecified) [PHENIBUT]										> 30	> 30	> 30	> 30	> 30	> 30	> 30	> 30
CN1C(=O)/C(=N\NC(N)=S)c2ccccc21 [METHISAZONE]										> 30	> 3	> 30	13.1	> 10	> 30	> 30	> 30
CC[C@@H]([C@H](C)O)n1ncn(-c2ccc(N3CCN(c4ccc(OC[C@@H]5CO[C@@](Cn6cncn6)(c6ccc(F)cc6F)C5)cc4)CC3)cc2)c1=O [POSACONAZOLE]										> 30	> 1	> 30	> 1		> 30	> 30	> 30
Cc1cnc(C(=O)NCCc2ccc(S(=O)(=O)NC(=O)NC3CCCCC3)cc2)cn1 [GLIPIZIDE]	> 10			> 10		> 30							> 3			> 30	> 30
C[C@H](Cc1ccc(O)c(O)c1)[C@@H](C)Cc1ccc(O)c(O)c1 [MASOPROCOL]	> 10	11	> 10	8.61	8.4 µM and > 30 µM (2×)	8.7	> 30	> 30	> 10								
OC1(c2ccc(Cl)cc2)c2ccccc2C2=NCCN21 (stereo unspecified) [MAZINDOL]	> 30	> 30	> 30	> 10	> 30 µM	> 30	> 30	> 30	> 30								
CCCCC(=O)O[C@]1(C(=O)CO)[C@@H](C)C[C@H]2[C@@H]3CCC4=CC(=O)C=C[C@]4(C)[C@@]3(F)[C@@H](O)C[C@@]21C [BETAMETHASONE VALERATE]	> 10	> 10	> 10	> 10	> 30 µM	0.004	> 30	> 10	> 10								
CCCC(CCC)C(N)=O [VALPROMIDE]	> 10	> 10	> 10	> 10	> 30 µM	> 30	> 30	> 10	> 10								
CCN(CC)C(=S)S [DITIOCARB]										> 30	> 1	> 10	> 1		> 30	> 30	> 30
CCC(=O)O[C@H]1CC[C@H]2[C@@H]3CCC4=CC(=O)CC[C@]4(C)[C@H]3CC[C@]12C [TESTOSTERONE PROPIONATE]		> 10	> 30	> 10	> 30 µM	0.109	> 30	> 10	> 10								
